Values quoted from earlier work as cited in patent US20050009897A1, “Method of treatment” (priority 2001, published 2005).
Where two headings read alike, the source gives them in different places.

How the values were obtained:
[1] = hypertensive patients; cited from earlier work
[2] = 45 hypertensive diabetic patients, cited from earlier work
[3] = compared with other β-blockers, angiotensin converting enzyme inhibitors or calcium channel blockers; cited from earlier work
[4] = nondiabetic hypertensive individuals; cited from earlier work

SMILES | glycemic control [1] | fasting glucose [2] | fasting insulin [2] | glucose disposal [2] | insulin sensitivity [2] | lipid peroxidation [2] | antihypertensive effect ([2]; relative to carvedilol) | lowering blood pressure [3] | insulin sensitivity [4] | HbA1c [2]
CC(C)NCC(O)COc1ccc(CC(N)=O)cc1 (stereo not shown) [atenolol] | significantly reduce | increased | increased | decreased | decreased | no effect | equivalent | – | – | –
COc1ccccc1OCCNCC(O)COc1cccc2[nH]c3ccccc3c12 (stereo not shown) [carvedilol] | – | decreased | decreased | increased | increased | decreased | – | as effective as other β-blockers, angiotensin converting enzyme inhibitors or calcium channel blockers | increases | decreased
CC(C)NCC(O)COc1cccc2ccccc12 (stereo not shown) [propranolol] | significantly reduce | – | – | – | – | – | – | – | – | –
